Results from patent US8952024B2, “Herbicidal pyrimidone derivatives” (E I du Pont de Nemours and Company, priority 2009, dated 2015).

Columns and labels:
Assay in all cases: Test D pre-/postemergence plant response
Assay type in all cases: in vivo
[1] = test system: Russian thistle (Salsola kali); conditions: Postemergence
From the text: (§1) Seeds of plant species selected from bermudagrass (Cynodon dactylon), Surinam grass (Brachiaria decumbens), large crabgrass (Digitaria sanguinalis), green foxtail (Setaria viridis), goosegrass (Eleusine indica), johnsongrass (Sorghum halepense), kochia (Kochia scoparia), morningglory (pitted morningglory, Ipomoea lacunosa), nutsedge (purple nutsedge, Cyperus rotundus), ragweed (common ragweed, Ambrosia elatior), black mustard (Brassica nigra), guineagrass (Panicum maximum), dallisgrass (Paspalum dilatatum), barnyardgrass (Echinochloa crus-galli), sandbur (southern sandbur, Cenchrus echinatus), sowthistle (common sowthistle, Sonchus oleraceous), prickly sida (Sida spinosa), Italian ryegrass (Lolium multiflorum), purslane (common purslane, Portulaca oleracea), signalgrass (broadleaf signalgrass, Brachiaria platyphylla), groundsel (common groundsel, Senecio vulgaris), chickweed (common chickweed, Stellaria media), dayflower (Virginia (VA) dayflower, Commelina virginica), bluegrass (annual bluegrass, Poa annua), naked crabgrass (Digitaria nuda), itchgrass (Rottboellia cochinchinensis), quackgrass (Elytrigia repens), field bindweed (Convolvulus arvensis), spanishneedles (Bidens bipinnata), mallow (common mallow, Malva sylvestris) and Russian thistle (Salsola kali), were planted into a blend of loam soil and sand and treated preemergence with test chemicals formulated in a non-phytotoxic solvent mixture which included a surfactant. At the same time, plants from these weed species were treated with postemergence applications of the test chemicals formulated in the same manner. Plants ranged in height from 2 to 18 cm (1- to 4-leaf stage) for postemergence treatments.
(§2) Treated plants and controls were maintained in a greenhouse for 14 to 21 days, after which time all species were visually evaluated and compared to controls. Plant response ratings, summarized in Table D, are based on a scale of 0 to 100 where 0 is no effect and 100 is complete control. A dash (-) response means no test result.

[2] = test system: Surinam grass (Brachiaria decumbens)
From the text: as §1, §2

[3] = test system: goosegrass (Eleusine indica)
From the text: as §1, §2

[4] = test system: large crabgrass (Digitaria sanguinalis)
From the text: as §1, §2

kochia (Kochia scoparia) = test system: kochia (Kochia scoparia)
From the text: as §1, §2

[5] = test system: spanishneedles (Bidens bipinnata)
From the text: as §1, §2

[6] = test system: signalgrass (broadleaf signalgrass, Brachiaria platyphylla)
From the text: as §1, §2

[7] = test system: nutsedge (purple nutsedge, Cyperus rotundus)
From the text: as §1, §2

[8] = test system: bluegrass (annual bluegrass, Poa annua)
From the text: as §1, §2

[9] = test system: bermudagrass (Cynodon dactylon)
From the text: as §1, §2

[10] = 125 g ai/ha, scale 0 to 100 (0 no effect, 100 complete control)
[11] = Postemergence, 125 g ai/ha, scale 0 to 100 (0 no effect, 100 complete control)
[12] = Postemergence, 31 g ai/ha, scale 0 to 100 (0 no effect, 100 complete control)
[13] = Postemergence, 31 g ai/ha, scale 0 to 100
[14] = Postemergence, 62 g ai/ha, scale 0 to 100 (0 no effect, 100 complete control)
[15] = Postemergence, 250 g ai/ha, scale 0 to 100 (0 no effect, 100 complete control)
[16] = Preemergence, 16 g ai/ha, scale 0 to 100, 0 no effect, 100 complete control
[17] = Preemergence, 31 g ai/ha, scale 0 to 100 (0 no effect, 100 complete control)
[18] = Preemergence, 125 g ai/ha, scale 0 to 100
[19] = Postemergence, 16 g ai/ha, scale 0 to 100
[20] = Preemergence, 62 g ai/ha, scale 0 to 100

COCCn1c(-c2ccsc2)ncc(C(=O)C2=C(O)C3CCC(C3)C2=O)c1=O (stereo not shown) [Compound 228]
Plant response rating, Russian Thistle [1, 10]: 65
Plant response rating, Surinam Grass [2, 11]: 70
Plant response rating, Goosegrass [3, 11]: 70
Plant response rating, Crabgrass, Large [4, 11]: 75
Plant response rating, Kochia (kochia (Kochia scoparia); [11]): 75
Plant response rating, Spanishneedles [5, 11]: 70
Plant response rating, Signalgrass [6, 11]: 20
Plant response rating, Nutsedge, Purple [7, 11]: 15
Plant response rating, Bluegrass [8, 12]: 0
Plant response rating, Bluegrass [8, 11]: 5
Plant response rating, Bermudagrass [9, 12]: 70
Plant response rating, Bermudagrass [9, 11]: 70

COCCCn1c(-c2cccc(F)c2)ncc(C(=O)C2=C(O)C3CCC(C3)C2=O)c1=O (stereo not shown) [Compound 238]
Plant response rating, Russian Thistle ([1]; 31 g ai/ha, scale 0 to 100): 30
Plant response rating, Russian Thistle ([1]; 62 g ai/ha, scale 0 to 100 (0 no effect, 100 complete control)): 40
Plant response rating, Russian Thistle [1, 10]: 50
Plant response rating, Russian Thistle ([1]; 250 g ai/ha, scale 0 to 100 (0 no effect, 100 complete control)): 50
Plant response rating, Surinam Grass [2, 13]: 75
Plant response rating, Surinam Grass [2, 14]: 75
Plant response rating, Surinam Grass [2, 11]: 75
Plant response rating, Surinam Grass [2, 15]: 85
Plant response rating, Goosegrass [3, 13]: 50
Plant response rating, Goosegrass [3, 14]: 70
Plant response rating, Goosegrass [3, 11]: 75
Plant response rating, Goosegrass [3, 15]: 75
Plant response rating, Crabgrass, Large [4, 13]: 50
Plant response rating, Crabgrass, Large [4, 14]: 70
Plant response rating, Crabgrass, Large [4, 11]: 75
Plant response rating, Crabgrass, Large [4, 15]: 80
Plant response rating, Kochia (kochia (Kochia scoparia); [13]): 20
Plant response rating, Kochia (kochia (Kochia scoparia); [14]): 50
Plant response rating, Kochia (kochia (Kochia scoparia); [11]): 65
Plant response rating, Kochia (kochia (Kochia scoparia); [15]): 75
Plant response rating, Spanishneedles [5, 13]: 65
Plant response rating, Spanishneedles [5, 14]: 70
Plant response rating, Spanishneedles [5, 11]: 70
Plant response rating, Spanishneedles [5, 15]: 75
Plant response rating, Signalgrass [6, 13]: 20
Plant response rating, Signalgrass [6, 14]: 35
Plant response rating, Signalgrass [6, 11]: 60
Plant response rating, Signalgrass [6, 15]: 65
Plant response rating, Nutsedge, Purple [7, 13]: 5
Plant response rating, Nutsedge, Purple [7, 14]: 10
Plant response rating, Nutsedge, Purple [7, 11]: 20
Plant response rating, Nutsedge, Purple [7, 15]: 20
Plant response rating, Bluegrass [8, 12]: 0
Plant response rating, Bluegrass [8, 14]: 5
Plant response rating, Bluegrass [8, 11]: 20
Plant response rating, Bluegrass [8, 15]: 40
Plant response rating, Bermudagrass [9, 12]: 80
Plant response rating, Bermudagrass [9, 14]: 90
Plant response rating, Bermudagrass [9, 11]: 95
Plant response rating, Bermudagrass [9, 15]: 95

COCCn1c(-c2ccccc2)ncc(C(=O)C2=C(O)CCCC2=O)c1=O [Compound 85]
Plant response rating, Surinam Grass [2, 13]: 75
Plant response rating, Surinam Grass [2, 14]: 75
Plant response rating, Surinam Grass [2, 11]: 85
Plant response rating, Surinam Grass [2, 16]: 98
Plant response rating, Surinam Grass [2, 17]: 100
Plant response rating, Surinam Grass [2, 18]: 100
Plant response rating, Goosegrass [3, 13]: 65
Plant response rating, Goosegrass [3, 14]: 75
Plant response rating, Goosegrass [3, 11]: 75
Plant response rating, Goosegrass [3, 19]: 40
Plant response rating, Goosegrass [3, 16]: 65
Plant response rating, Goosegrass [3, 17]: 75
Plant response rating, Goosegrass [3, 20]: 75
Plant response rating, Goosegrass [3, 18]: 98
Plant response rating, Crabgrass, Large [4, 13]: 60
Plant response rating, Crabgrass, Large [4, 14]: 75
Plant response rating, Crabgrass, Large [4, 11]: 75
Plant response rating, Crabgrass, Large [4, 19]: 60
Plant response rating, Crabgrass, Large [4, 16]: 95
Plant response rating, Crabgrass, Large [4, 17]: 98
Plant response rating, Crabgrass, Large [4, 20]: 100
Plant response rating, Crabgrass, Large [4, 18]: 100
Plant response rating, Kochia (kochia (Kochia scoparia); [13]): 10
Plant response rating, Kochia (kochia (Kochia scoparia); [14]): 20
Plant response rating, Kochia (kochia (Kochia scoparia); [11]): 60
Plant response rating, Kochia (kochia (Kochia scoparia); [19]): 0
Plant response rating, Kochia (kochia (Kochia scoparia); [16]): 5
Plant response rating, Kochia (kochia (Kochia scoparia); [17]): 20
Plant response rating, Kochia (kochia (Kochia scoparia); [20]): 75
Plant response rating, Kochia (kochia (Kochia scoparia); [18]): 95
Plant response rating, Spanishneedles [5, 13]: 75
Plant response rating, Spanishneedles [5, 14]: 90
Plant response rating, Spanishneedles [5, 11]: 95
Plant response rating, Spanishneedles [5, 19]: 75
Plant response rating, Spanishneedles [5, 16]: 90
Plant response rating, Spanishneedles [5, 17]: 98
Plant response rating, Spanishneedles [5, 18]: 100
Plant response rating, Spanishneedles ([5]; Preemergence, rate not given, scale 0 to 100, 0 no effect, 100 complete control): 98
Plant response rating, Signalgrass [6, 13]: 35
Plant response rating, Signalgrass [6, 14]: 60
Plant response rating, Signalgrass [6, 11]: 75
Plant response rating, Signalgrass [6, 19]: 20
Plant response rating, Signalgrass [6, 16]: 5
Plant response rating, Signalgrass [6, 17]: 60
Plant response rating, Signalgrass [6, 18]: 95
Plant response rating, Nutsedge, Purple [7, 13]: 30
Plant response rating, Nutsedge, Purple [7, 14]: 50
Plant response rating, Nutsedge, Purple [7, 11]: 65
Plant response rating, Nutsedge, Purple [7, 19]: 5
Plant response rating, Nutsedge, Purple [7, 16]: 70
Plant response rating, Nutsedge, Purple [7, 17]: 75
Plant response rating, Nutsedge, Purple [7, 20]: 95
Plant response rating, Nutsedge, Purple [7, 18]: 95
Plant response rating, Bluegrass [8, 12]: 0
Plant response rating, Bluegrass [8, 14]: 5
Plant response rating, Bluegrass [8, 11]: 5
Plant response rating, Bluegrass [8, 19]: 0
Plant response rating, Bluegrass [8, 16]: 0
Plant response rating, Bluegrass [8, 17]: 0
Plant response rating, Bluegrass [8, 20]: 0
Plant response rating, Bluegrass [8, 18]: 15
Plant response rating, Bermudagrass [9, 12]: 75
Plant response rating, Bermudagrass [9, 14]: 80
Plant response rating, Bermudagrass [9, 11]: 90
Plant response rating, Bermudagrass [9, 19]: 65
Plant response rating, Bermudagrass [9, 16]: 80
Plant response rating, Bermudagrass [9, 17]: 100
Plant response rating, Bermudagrass [9, 20]: 100
Plant response rating, Bermudagrass [9, 18]: 100
